From patent US7238347B2, “Suicidal mutant Leishmania vaccine” (priority 2005, dated 2007)

Legend:
[1] = tested on: J774A1 macrophages infected with alad/pbgd double transfectants; assay: Intracellular transgenic amastigotes and macrophages per culture after ALA; assay type: cell-based, mouse; details: 1-2 mM ALA
Protocol: J774A1 cells were infected in vitro with alad/pbgd double transfectants of L. amazonensis at a promastigote-to-macrophage ratio of 10:1. Infected cultures were maintained at 35° C. with daily medium renewal for 42 days. Cultures were split equally into two, one with and the other without the addition of 1-2 mM ALA 3 times on days 2, 26 and 40 post-infection (arrows). The total number of intracellular amastigotes (left) and macrophages (right) per culture were estimated at the time points indicated, as described (Chang, 1980). Note: Decrease of intracellular amastigotes in number after the 1st 2 ALA treatments.
Intra-macrophage amastigotes are lysed selectively when rendered uroporphyric in situ, as determined by quantitative analysis of parasites and macrophages in such infected cultures (FIG. 15). This observation further strengthens the use of porphyric Leishmania as a live model for vaccine delivery. We observed this by using macrophages infected with the double transfectants. The infected cultures were split equally into 2 identical sets. In a total period of 42 days, one set received 3 separate ALA treatments, each pulsed for ˜24 hrs, at different time points after infection, while the other set received no treatments (see legend to FIG. 15 for experimental conditions). […]

[2] = tested on: Leishmania donovani DD8; assay: Hamster vaccination, Experiment 2, challenge with L. donovani; assay type: in vivo, Syrian Golden hamsters
Description: The values for body weights were from all animals available at specific time points. Two animals were sacrificed per group per time point for assessing spleen weights and parasite loads;
Impression smears (Left panel) of cut spleens were Geimsa-stained and examined microscopically under oil immersion lens to enumerate amastigotes per 1,000 splenic nuclei as a measure of parasite loads (Right Panel). Note: Parasite loads decrease precipitously after day 45 in contrast to the control groups. The data are consistent with the data for animal body weights and spleen weights; and
The 2nd experiment was designed to verify and to strengthen the results of the 1st experiment by including 2 additional control groups. One is to treat animals with ALA alone so as to eliminate the potential contribution of this metabolite to the outcome observed. Another is to include pbgd single transfectants (ST) as an additional non-porphyric control to ascertain that the prophylactic effects observed are independent of factors specific to DT or L. amazonensis infection alone. There is some indication of this in the 1st experiment for “vaccination” of hamsters with the DT−ALA+LD group whose splenic parasite loads remained high, but the amastigotes look degenerative (FIG. 20). Except for “vaccination” on the back and illumination with white light, experimental conditions otherwise followed those in the 1st as follows:
A total of 50 Syrian Golden hamsters (40-45 gm) were used 10 per group for each of the following experimental and control groups:
Day 6 (Sep. 28, 2004): Harvest and resuspend cells for inoculation intradermally to a shaved area (˜2 cm×2 cm) on the back of the animals as follows:
Days 9-12 (Oct. 1-4, 2004): inject the same site of each animal daily 4× with 20 ul […] ALA solution
Days 13-17 (Oct. 5-9, 2004): Illuminate caged animals from 9 AM to 5 PM daily for five days under white light [Four bulbs of 100 W (Phillips)+2 tube lights of 40 W in an AC room of 6 ft×6 ft×10 ft] 2 ft above, keeping a constant temperature of 26-27° C.
[…] (Oct. 25, 2004): Challenge 9 animals of each group with 107 DD8 strain of L. donovani amastigotes/animal by intracardiac route.
Day 78 (Dec. 9, 2004): Parasitological/immunological evaluations-45 days post-challenge (FIG.).
Day 93 (Dec. 24, 2004): Parasitological/immunological evaluations-60 days post-challenge (FIG.).
Day 147 (Feb. 16, 2005): survivors left of a total of 4 animals 114 days after challenge, excluding 6 sacrificed for experimentation on days 0, 45, and 60.

[3] = tested on: hamster lymph node mononuclear cells; assay: Proliferation of lymph node cells to Con-A and Leishmania soluble antigens, tritiated thymidine; assay type: cell-based; details: 45 days after challenging infection, 20 ug/ml antigen
Protocol: Lymph nodes of hamsters from experimental and control groups, as indicated, were used 45 days after challenging infection to prepare mononuclear cell-suspension (10^6/ml). Aliqouts of 100 ul were cultured in 96 well flat bottom tissue culture plates (Nunc, Denmark). 100 ul of Conconavalin A or soluble L. donovani promastigote antigens were added to each well, giving a final concentration of 10 ug/ml and 20 ug/ml, respectively. Cultures were prepared in triplicate for each sample and incubated at 37° C. and 5% CO2 for 3 days and 5 days for Con-A treated and antigen-treated cells, respectively. Eighteen hours prior to termination of incubation of cultures, 0.5 uCi of tritiated-thymidine was added to each well. Cells were harvested on to glass fiber mats (Whatman) for liquid scintillation counting.

## NCC(=O)CCC(=O)O [ALA, delta-aminolevulinate]
[1]
  growth of J774A1 macrophages: unaffected
[2]; 114 days after challenge
  survivors left of a total of 4 animals: 0/4
[2]; ALA treatment alone
  immunoprophylactic effect: ineffective
[2]; day 45 to day 60 post challenge
  splenic parasite loads, amastigotes in impression smears: abundant in number
[2]; days 45 and 60 post-challenge
  splenomegaly by spleen weight: most pronounced
[3]
  lymph node cell response to LSA: virtually no response
